Measurements reported in US12559496B2, “Imidazopyrimidines as modulators of IL-17” (Janssen Pharmaceutica NV, priority 2020, dated 2026).

Legend:
[1] = seven of nine patients with moderate-to-severe HS, open-label pilot-trial (Prussick et al. 2019); cited from earlier work
[2] = target: IL-17A(FLAG-Tagged): IL-17RA(His-Tagged) (Homo sapiens, UniProt Q16552, K93Q); assay: IL-17A(FLAG-Tagged): IL-17RA(His-Tagged) Binding Disruption Eu-HTRF Assay; details: disruption of IL-17A/IL-17RA binding; simple average if tested more than once
Sequence of UniProt Q16552 (Q16552 with tags, fused parts or gaps K93Q): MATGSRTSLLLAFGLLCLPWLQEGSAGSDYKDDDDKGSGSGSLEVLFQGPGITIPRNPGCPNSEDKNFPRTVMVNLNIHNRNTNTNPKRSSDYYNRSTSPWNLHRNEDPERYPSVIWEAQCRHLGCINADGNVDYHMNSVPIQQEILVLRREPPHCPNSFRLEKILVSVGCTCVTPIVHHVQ
Summary of the method: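 Compound (22-point 2-fold series) was preincubated 1 h at rt with FLAG-IL-17A, then His-IL-17RA, Eu-anti-FLAG and D2-anti-His were added in PBS/0.01% Triton X-100 with 200 mM KF for 2 h at rt. The ratio of 665 and 620 nm intensities versus concentration was fitted to one-site competition for IC50.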

[3] = test system: IL-17A-induced G-CSF production in human normal keratinocytes (NHK); assay: NHK Assay: IL-17A-induced G-CSF production in human normal keratinocytes; format: cell-based; details: IL-17A 5 ng/mL, 24 h, 5% FBS, simple average if tested more than once
Summary of the method: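 Adult normal human keratinocytes treated 24 h at 37 °C with IL-17A (5 ng/mL final) pre-incubated 1 h at rt with titrated compound; 0.2% DMSO, 5% FBS. G-CSF in supernatant measured by HTRF against a standard curve to give IC50; viability checked by CellTiter-Glo.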

Compound: secukinumab
- patients achieving HiSCR [1]: 78%

Compound: O=C(CC1CC1(F)F)N[C@@H](c1ccn2cc([C@@H](NC(=O)c3conc3C(F)(F)F)C3CCC(F)(F)CC3)nc2n1)C1CC1 (single isomer, unassigned) [Example 58, N—((S)-(7-((R)-Cyclopropyl(2-((R*)-2,2-difluorocyclopropyl)acetamido)methyl)imidazo[1,2-a]pyrimidin-2-yl)(4,4-difluorocyclohexyl)methyl)-3-(trifluoromethyl)isoxazole-4-carboxamide]
- IC50 [2]: 340 nM
- IC50 [3]: 2200 nM

Compound: O=C(CCC(F)(F)F)NC(c1ccn2cc([C@@H](NC(=O)c3cnn(CCC(F)(F)F)c3)C3CCC(F)(F)CC3)nc2n1)C1CC1 (stereo in doubt) [Example 50, N—((S)-(7-((R*)-Cyclopropyl(4,4,4-trifluorobutanamido)methyl)imidazo[1,2-a]pyrimidin-2-yl)(4,4-difluorocyclohexyl)methyl)-1-(3,3,3-trifluoropropyl)-1H-pyrazole-4-carboxamide]
- IC50 [2]: 6800 nM
- IC50 ([3]; Homo sapiens, Keratinocyte): > 20000 nM

Compound: O=C(CC1CC(F)(F)C1)N[C@@H](c1ccn2cc([C@@H](NC(=O)[C@H]3C[C@@H]3C(F)(F)F)C3CCC(F)(F)CC3)nc2n1)C1CC1 (relative stereo) [Example 12, trans-(1R*,2R*)—N—((S)-(7-((R)-Cyclopropyl(2-(3,3-difluorocyclobutyl)acetamido)methyl)imidazo[1,2-a]pyrimidin-2-yl)(4,4-difluorocyclohexyl)methyl)-2-(trifluoromethyl)cyclopropane-1-carboxamide]
- IC50 [2]: 6000 nM
- IC50 ([3]; Homo sapiens, Keratinocyte): > 20000 nM

Compound: Cc1nonc1C(=O)N[C@H](c1cn2ccc([C@H](NC(=O)C[C@H]3C[C@H](F)C3)C3CC3)nc2n1)C1CCC(F)(F)CC1 [Example 61, N—((S)-(7-((R)-Cyclopropyl(2-((1r,3S)-3-fluorocyclobutyl)acetamido)methyl)imidazo[1,2-a]pyrimidin-2-yl)(4,4-difluorocyclohexyl)methyl)-4-methyl-1,2,5-oxadiazole-3-carboxamide]
- IC50 [2]: 460 nM
- IC50 ([3]; Homo sapiens, Keratinocyte): 2300 nM

Compound: O=C(CC1CC(F)(F)C1)N[C@H](c1ccn2cc([C@@H](NC(=O)c3ncnn3CC3CC3)C3CCC(F)(F)CC3)nc2n1)C1CC1 [Example 16, N—((S)-(7-((S)-Cyclopropyl(2-(3,3-difluorocyclobutyl)acetamido)methyl)imidazo[1,2-a]pyrimidin-2-yl)(4,4-difluorocyclohexyl)methyl)-1-(cyclopropylmethyl)-1H-1,2,4-triazole-5-carboxamide]
- IC50 [2]: 12000 nM
- IC50 ([3]; Homo sapiens, Keratinocyte): > 20000 nM

Compound: Cc1c(C(=O)N[C@H](c2cn3ccc(C(NC(=O)CCC(F)(F)F)C4CC4)nc3n2)C2CCC(F)(F)CC2)cnn1CCC(F)(F)F (single isomer, unassigned) [Example 39, N—((S)-(7-((R*)-Cyclopropyl(4,4,4-trifluorobutanamido)methyl)imidazo[1,2-a]pyrimidin-2-yl)(4,4-difluorocyclohexyl)methyl)-5-methyl-1-(3,3,3-trifluoropropyl)-1H-pyrazole-4-carboxamide]
- IC50 [2]: 13000 nM
- IC50 [3]: ~20000 nM

Compound: O=C(CC1CC(F)(F)C1)N[C@H](c1ccn2cc([C@@H](NC(=O)c3conc3CCC(F)(F)F)C3CCC(F)(F)CC3)nc2n1)C1CC1 [Example 29, N—((S)-(7-((S)-Cyclopropyl(2-(3,3-difluorocyclobutyl)acetamido)methyl)imidazo[1,2-a]pyrimidin-2-yl)(4,4-difluorocyclohexyl)methyl)-3-(3,3,3-trifluoropropyl)isoxazole-4-carboxamide]
- IC50 [2]: 2300 nM
- IC50 ([3]; Homo sapiens, Keratinocyte): 2600 nM

Compound: O=C(CCC(F)(F)F)N[C@@H](c1ccn2cc([C@@H](NC(=O)c3conc3CCC(F)(F)F)C3CCC(F)(F)CC3)nc2n1)C1CC1 [Example 30, N—((S)-(7-((R)-Cyclopropyl(4,4,4-trifluorobutanamido)methyl)imidazo[1,2-a]pyrimidin-2-yl)(4,4-difluorocyclohexyl)methyl)-3-(3,3,3-trifluoropropyl)isoxazole-4-carboxamide]
- IC50 [2]: 110 nM
- IC50 ([3]; Homo sapiens, Keratinocyte): 74 nM

Compound: CC(CC(=O)N[C@H](c1ccn2cc([C@@H](NC(=O)c3ccnc(CC(F)(F)F)c3)C3CCC(F)(F)CC3)nc2n1)C1CC1)C(F)(F)F (single isomer, unassigned) [Example 3, N—((S)-(7-((S)-Cyclopropyl((R*)-4,4,4-trifluoro-3-methylbutanamido)methyl)imidazo[1,2-a]pyrimidin-2-yl)(4,4-difluorocyclohexyl)methyl)-2-(2,2,2-trifluoroethyl)isonicotinamide]
- IC50 [2]: 3100 nM
- IC50 ([3]; Homo sapiens, Keratinocyte): 640 nM

Compound: O=C(CCC(F)(F)F)N[C@@H](c1ccn2cc([C@@H](NC(=O)c3ncnn3CC3CC3)C3CCC(F)(F)CC3)nc2n1)C1CC1 [Example 32, N—((S)-(7-((R)-Cyclopropyl(4,4,4-trifluorobutanamido)methyl)imidazo[1,2-a]pyrimidin-2-yl)(4,4-difluorocyclohexyl)methyl)-1-(cyclopropylmethyl)-1H-1,2,4-triazole-5-carboxamide]
- IC50 [2]: 170 nM
- IC50 ([3]; Homo sapiens, Keratinocyte): 520 nM

Compound: O=C(CCC(F)(F)F)NC(c1ccn2cc([C@@H](NC(=O)c3cnn(CCC(F)(F)F)n3)C3CCC(F)(F)CC3)nc2n1)C1CC1 (single isomer, unassigned) [Example 40, N—((S)-(7-((S*)-Cyclopropyl(4,4,4-trifluorobutanamido)methyl)imidazo[1,2-a]pyrimidin-2-yl)(4,4-difluorocyclohexyl)methyl)-2-(3,3,3-trifluoropropyl)-2H-1,2,3-triazole-4-carboxamide]
- IC50 [2]: 310 nM
- IC50 [3]: 360 nM

Compound: O=C(CC1CC(F)(F)C1)N[C@@H](c1ccn2cc([C@@H](NC(=O)c3ccnc(CC(F)(F)F)c3)C3CCC(F)(F)CC3)nc2n1)C1CC1 [Example 25, N—((S)-(7-((R)-Cyclopropyl(2-(3,3-difluorocyclobutyl)acetamido)methyl)imidazo[1,2-a]pyrimidin-2-yl)(4,4-difluorocyclohexyl)methyl)-2-(2,2,2-trifluoroethyl)isonicotinamide]
- IC50 [2]: 310 nM
- IC50 ([3]; Homo sapiens, Keratinocyte): 210 nM

Compound: O=C(CC1CC(F)(F)C1)N[C@@H](c1ccn2cc([C@@H](NC(=O)[C@@H]3C[C@H]3C(F)(F)F)C3CCC(F)(F)CC3)nc2n1)C1CC1 (relative stereo) [Example 11, trans-(1S*,2S*)—N—((S)-(7-((R)-Cyclopropyl(2-(3,3-difluorocyclobutyl)acetamido)methyl)imidazo[1,2-a]pyrimidin-2-yl)(4,4-difluorocyclohexyl)methyl)-2-(trifluoromethyl)cyclopropane-1-carboxamide]
- IC50 [2]: 660 nM
- IC50 ([3]; Homo sapiens, Keratinocyte): 540 nM

Compound: O=C(CCC(F)(F)F)N[C@H](c1ccn2cc([C@@H](NC(=O)c3cnn(CC4CC4)n3)C3CCC(F)(F)CC3)nc2n1)C1CC1 [Example 31, N—((S)-(7-((S)-Cyclopropyl(4,4,4-trifluorobutanamido)methyl)imidazo[1,2-a]pyrimidin-2-yl)(4,4-difluorocyclohexyl)methyl)-2-(cyclopropylmethyl)-2H-1,2,3-triazole-4-carboxamide]
- IC50 [2]: 3000 nM
- IC50 ([3]; Homo sapiens, Keratinocyte): > 20000 nM

Compound: CC(CC(=O)N[C@@H](c1ccn2cc([C@@H](NC(=O)[C@@H]3C[C@H]3C(F)(F)F)C3CCC(F)(F)CC3)nc2n1)C1CC1)C(F)(F)F (single isomer, unassigned) [Example 5]
- IC50 [2]: 700 nM
- IC50 ([3]; Homo sapiens, Keratinocyte): 960 nM

Compound: CC(CC(=O)N[C@@H](c1ccn2cc([C@@H](NC(=O)[C@H]3C[C@@H]3C(F)(F)F)C3CCC(F)(F)CC3)nc2n1)C1CC1)C(F)(F)F (single isomer, unassigned) [Example 6]
- IC50 [2]: 2700 nM
- IC50 ([3]; Homo sapiens, Keratinocyte): 2100 nM

Compound: Cc1nonc1C(=O)N[C@H](c1cn2ccc([C@H](NC(=O)CC3CC3(F)F)C3CC3)nc2n1)C1CCC(F)(F)CC1 (single isomer, unassigned) [Example 51, N—((S)-(7-((R)-Cyclopropyl(2-((S*)-2,2-difluorocyclopropyl)acetamido)methyl)imidazo[1,2-a]pyrimidin-2-yl)(4,4-difluorocyclohexyl)methyl)-4-methyl-1,2,5-oxadiazole-3-carboxamide]
- IC50 [2]: 360 nM
- IC50 ([3]; Homo sapiens, Keratinocyte): 2000 nM

Compound: CC(CC(=O)N[C@@H](c1ccn2cc([C@@H](NC(=O)c3ncnn3CC3CC3)C3CCC(F)(F)CC3)nc2n1)C1CC1)C(F)(F)F (single isomer, unassigned) [Example 20, N—((S)-(7-((R)-Cyclopropyl((R*)-4,4,4-trifluoro-3-methylbutanamido)methyl)imidazo[1,2-a]pyrimidin-2-yl)(4,4-difluorocyclohexyl)methyl)-1-(cyclopropylmethyl)-1H-1,2,4-triazole-5-carboxamide]
- IC50 [2]: 470 nM
- IC50 [3]: 2800 nM
